The values that follow come from US6376497B1, “Antifungal azole derivatives having a fluorinated vinyl group and process for preparing same” (Korea Research Institute of Chemical Technology, priority 1999, dated 2002).

Data set [1] has as its system Aspergillus furnigatus B. 19119. The experiment in a line: In vitro antifungal activity, microbroth dilution MIC. The data set is classed as cell-based. As to conditions: A furnigatus B. 19119, RPMI-1640, 35° C., 4 to 48 hours. An outline of the steps: (§1)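 Broth microdilution adapted from NCCLS M27, in RPMI-1640 with 0.165 M MOPS, pH 7.0. Yeast or mould inoculum at 2×10^3 CFU/ml was mixed 1:1 with DMSO-derived compound solutions (200 to 0.10 μg/ml before mixing) and incubated at 35 °C for 4 to 48 h. MIC was the concentration showing no growth.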
(In general: Broth dilution looks for growth in wells or tubes with falling amounts of substance.)

Data set [2] concerns Aspergillus niger A. 16404. The data set is described as above. The data set is classed as cell-based. As to conditions: A. niger A. 16404, RPMI-1640, 35° C., 4 to 48 hours. In short, it runs like this:
as §1

Data set [3] has as its system Candida albicans A. 10231. The description is as above. The data set is classed as cell-based. As to conditions: C. albicans A. 10231, RPMI-1640, 35° C., 4 to 48 hours. In short, it runs like this:
as §1

Data set [4] concerns Candida albicans C1-2. The data set is described as above. The data set is classed as cell-based. As to conditions: C. albicans C1-2, RPMI-1640, 35° C., 4 to 48 hours. In short, it runs like this:
as §1

In data set [5] the test system is Candida albicans IFO. 1385. Described as above. The data set is classed as cell-based. As to conditions: C. albicans IFO. 1385, RPMI-1640, 35° C., 4 to 48 hours. In short, it runs like this:
as §1

In data set [6] the test system is Candida krusei K. 11655. Described as above. The data set is classed as cell-based. As to conditions: C. krusei K. 11655, RPMI-1640, 35° C., 4 to 48 hours. In short, it runs like this:
as §1

In data set [7] the test system is Candida parapsitosis A. 7330. The data set is described as above. As to conditions: C. parapsitosis A. 7330, RPMI-1640, 35° C., 4 to 48 hours. The data set is classed as cell-based. An outline of the steps: as §1
Data set [8] concerns Candida pseudotropicalis K. 11658. The data set is described as above. The data set is classed as cell-based. The conditions noted are these: C. pseudotropicalis K. 11658, RPMI-1640, 35° C., 4 to 48 hours. In short, it runs like this: as §1
In data set [9] the test system is Candida tropicalis A. 13803. The description is as above. The data set is classed as cell-based. The conditions noted are these: C. tropicalis A. 13803, RPMI-1640, 35° C., 4 to 48 hours. In short, it runs like this:
as §1

The test system of data set [10] is Cryptococcus neoformans A. 34144. The data set is described as above. The data set is classed as cell-based. As to conditions: Cry. neoformans A. 34144, RPMI-1640, 35° C., 4 to 48 hours. An outline of the steps: as §1
For data set [11], the system named is Cryptococcus neoformans B. 42419. The data set is described as above. As to conditions: Cry. neoformans B. 42419, RPMI-1640, 35° C., 4 to 48 hours. The data set is classed as cell-based. An outline of the steps:
as §1

For data set [12], the system named is Cryptococcus neoformans IFM. 40092. The data set is described as above. The data set is classed as cell-based. The conditions noted are these: Cry. neoformans IFM. 40092, RPMI-1640, 35° C., 4 to 48 hours. In short, it runs like this: as §1
Data set [13] relates to Torulopsis glabrata B. 16205. Described as above. The data set is classed as cell-based. The conditions noted are these: T. glabrata B. 16205, RPMI-1640, 35° C., 4 to 48 hours. An outline of the steps:
as §1

Data set [14] has as its system Trichophyton mentagrophytes A. 9129. The description is as above. The data set is classed as cell-based. The conditions noted are these: T. mentagrophytes A. 9129, RPMI-1640, 35° C., 4 to 48 hours. In short, it runs like this: as §1
The subject of data set [15] is Trichophyton mentagrophytes B. 32663. The description is as above. The data set is classed as cell-based. As to conditions: T. mentagrophytes B. 32663, RPMI-1640, 35° C., 4 to 48 hours. An outline of the steps:
as §1

Data set [16] deals with ICR mice. The conditions noted are these: for LD50: single oral administration in corn oil containing 30% DMSO, observed for 7 days. How it is done:
30 four-week-old, specific pathogen-free ICR mice, 15 female mice each weighing about 15.8 to 22.3 g and 15 male mice each weighing about 18.7 to 25.6 g, were provided by the Animal Center of Korean Research Institute of Chemical and Technology.
When the mice became five-week-old, 15 female mice each weighing about 17.0 to 22.3 g and 15 male mice each weighing about 22.0 to 27.7 g were bred for 6 days before the experiment under an environment of […], 50±10% relative humidity, 12L/12D photoperiod, 10-20 ventilation and 150-300 Lux illumination, with free access to food(Cheil Fodder Co.) which had been sterilized by using 2.0 Mrad radiation and water sterilized by U.V. sterilizer.
The compound of Example 26 of the present invention was dissolved in corn oil containing 30% DMSO and the solution was orally administered in doses of 10, 50, 100, 500, 1,000 and 2,000 mg of the compound/kg of the body weight(10 ml of the sample volume/kg of the body weight). […] The weight changes of the mice were recorded every day to examine the effect of the test compound. Further, on the 7th day, the mice were sacrificed and the internal organs were visually examined.

Data set [17] deals with mouse. As to conditions: intravenous; cited from earlier work.
Data set [18] concerns mouse. As to conditions: oral; cited from earlier work.

≈ marks a conversion by molar mass, not a printed value. Like-named read-outs stand apart in the source and are kept apart here.

For `FC(OCC1COC(Cn2ccnc2)(c2ccc(Cl)cc2Cl)O1)=C(c1ccc(Cl)cc1)C(F)(F)F` (centres unmarked) [Ex. 31], the “Minimal inhibitory concentration (MIC)” value in [1] worked out at 6.25 µg/mL (≈ 11.3 µM); in [2], 6.25 µg/mL (≈ 11.3 µM); in data set [3], 12.5 µg/mL (≈ 22.7 µM); in data set [4], 12.5 µg/mL (≈ 22.7 µM); in [5] it was 0.78 µg/mL (≈ 1.41 µM); in data set [6], 25.0 µg/mL (≈ 45.3 µM). The “Minimal inhibitory concentration (MIC)” value in data set [7] is 25.0 µg/mL (≈ 45.3 µM); in data set [8], 12.5 µg/mL (≈ 22.7 µM); in [9], 12.5 µg/mL (≈ 22.7 µM); in data set [10], 1.56 µg/mL (≈ 2.83 µM); in data set [11], 1.56 µg/mL (≈ 2.83 µM); in [12], 0.78 µg/mL (≈ 1.41 µM). The results for the “Minimal inhibitory concentration (MIC)” value in [13], in data set [14] and in data set [15] were 6.25 µg/mL (≈ 11.3 µM), 3.13 µg/mL (≈ 5.67 µM) and 1.56 µg/mL (≈ 2.83 µM), respectively.

As for `COc1cccc(C(=C(F)OCC2COC(Cn3ccnc3)(c3ccc(Cl)cc3Cl)O2)C(F)(F)F)c1` (centres unmarked) [Example 26], the “Minimal inhibitory concentration (MIC)” value in data set [1] amounted to 3.13 µg/mL (≈ 5.72 µM); in data set [2] it was 6.25 µg/mL (≈ 11.4 µM); in data set [3], 6.25 µg/mL (≈ 11.4 µM); in data set [4] it was 6.25 µg/mL (≈ 11.4 µM); in data set [5] it was 0.39 µg/mL (≈ 0.713 µM); in data set [6], 25.0 µg/mL (≈ 45.7 µM). Besides, the “Minimal inhibitory concentration (MIC)” value is 12.5 µg/mL (≈ 22.8 µM) in [7]; 12.5 µg/mL (≈ 22.8 µM) in [9]; 1.56 µg/mL (≈ 2.85 µM) in data set [10]; 1.56 µg/mL (≈ 2.85 µM) in data set [11]; 0.39 µg/mL (≈ 0.713 µM) in data set [12]; 6.25 µg/mL (≈ 11.4 µM) in [13]. The “Minimal inhibitory concentration (MIC)” value in [14] turned out to be 1.56 µg/mL (≈ 2.85 µM); in data set [15] it was 0.78 µg/mL (≈ 1.43 µM). The values for the median lethal dose (LD50) entry in data set [16] (female) and in data set [16] (male) were “approximately 2,000 mg/kg” and “higher than 2,000 mg/kg”, respectively. The “survival at day 7” value in [16] (single oral dose of 1,000 mg/kg or below) is reported as “All the mice were alive at day 7”. In addition, the weight loss result in [16] (single oral doses 10 to 2,000 mg/kg, 7 day test period) is listed as “no weight loss was observed”.

As to `C[C@@H]1[C@H](O)[C@@H](C)/C=C/C=C/C=C/C=C/C=C/C=C/C=C/[C@H](O[C@@H]2O[C@H](C)[C@@H](O)[C@H](N)[C@@H]2O)C[C@@H]2O[C@](O)(C[C@@H](O)C[C@@H](O)[C@H](O)CC[C@@H](O)C[C@@H](O)CC(=O)O[C@H]1C)C[C@H](O)[C@H]2C(=O)O` [amphotericin B], in data set [17], the LD50 (in general, the dose at which mortality reaches 50%) is 4 mg/kg.

For the compound `CC(=O)N1CCN(c2ccc(OCC3COC(Cn4ccnc4)(c4ccc(Cl)cc4Cl)O3)cc2)CC1` (centres unmarked) [ketoconazole], the LD50 in data set [18] is 702 mg/kg.

For “(E&Z) 1-{4-[cis-2-(2,4-dichlorophenyl)-2-(1H-1-imidazolylmethyl)-1,3-dioxolan-4-ylmethoxy]-phenoxy}-1,3,3,3-tetrafluoro-2-phenyl-1-propene [Example 19]”, the “Minimal inhibitory concentration (MIC)” value was 1.56 µg/mL in data set [1]; 3.13 µg/mL in data set [2]; 6.25 µg/mL in [3]; 6.25 µg/mL in [4]; 0.78 µg/mL in data set [5]; 50.0 µg/mL in [6]. Also, the “Minimal inhibitory concentration (MIC)” value in data set [7] is over 100 µg/mL; in [8] it was 25.0 µg/mL; in data set [9], 25.0 µg/mL; in [10], 1.56 µg/mL; in [11], 0.78 µg/mL; in data set [12], 0.20 µg/mL. Moreover, the figures for the “Minimal inhibitory concentration (MIC)” value in data set [13], in data set [14] and in [15] were 3.13 µg/mL, 1.56 µg/mL and 0.78 µg/mL, respectively.
